The source of these data is patent US20190374468A1, “Liposomal Formulations for Allosteric AKT Inhibitors” (Merck Sharp & Dohme Corp., priority 2013, published 2019).

Data set [1] in a line: Aqueous solubility of Compound B. Type of data set: physicochemical.
Data set [2] is described as follows: Visual evaluation of Compound B in the presence of sulfate salts. It is filed as physicochemical. As to conditions: 1 mg/mL in pH 3.0 citrate buffer with 0.1-1.0 M (NH4)2SO4, 20° C. On the procedure: The behavior of Compound B in the presence of sulfate salts was further evaluated visually. Vials containing 1 mg/mL Compound B in pH 3.0 citrate buffer with 0.1 M, 0.25 M, 0.5 M, and 1.0 M, respectively, of (NH4)2SO4 were visually observed at 20° C. […] Solutions became increasingly more viscous with a white/opaque appearance with increasing amounts of ammonium sulfate.

On to `Cl.NC1(c2ccc(-c3nc4ccn5c(=O)[nH]nc5c4cc3-c3ccccc3)cc2)CCC1` [Compound B, 8-[4-(1-aminocyclobutyl)phenyl]-9-phenyl[1,2,4]triazolo[3,4-f]-1,6-naphthyridin-3-ol], for which the solubility in data set [1] (0.1 M carbonate buffer, aqueous buffer, pH 8.6, 0.1M Carbonate) came to 0.7 µg/mL; in data set [1] (0.1 M citrate buffer, aqueous buffer, pH 2.8, 0.1M Citrate), 10600 µg/mL; in data set [1] (0.1 M citrate buffer, aqueous buffer, pH 3.9, 0.1M Citrate), 170 µg/mL; in data set [1] (0.1 M citrate buffer, aqueous buffer, pH 5.0, 0.1M Citrate), 59 µg/mL; in data set [1] (0.1 M phosphate buffer, aqueous buffer, pH 5.6, 0.1M Phosphate), 140 µg/mL; in data set [1] (0.1 M phosphate buffer, aqueous buffer, pH 6.9, 0.1M Phosphate), 36 µg/mL. For the same compound, the solubility was 4230 µg/mL in data set [1] (simulated gastric fluid, pH 2.1, 0.01N HCl) and 7460 µg/mL in data set [1] (un-buffered aqueous medium, water, pH 4.1, Un-buffered). The “time to flocculation after addition of ammonium sulfate” value in data set [2] is reported as less than 30 min.

Usually solubility stands for the dissolved amount per volume that the medium holds. A higher solubility goes with a readily soluble substance.
